# Assays:
# [1] = test system: periodontally supporting bone loss; conditions: beagle dog model; clinical index of periodontal disease progression; cited from earlier work
# [2] = target: periodontal cyclooxygenase; experiment: Inhibition of cyclooxygenase products (14C arachidonic acid incorporation) in inflamed human gingival tissue homogenate; type: biochemical; conditions: for % Control: 2 hours at 37° C.
# Description: Inflamed human gingival tissue was obtained from patients with periodontitis who were undergoing routine periodontal surgery. The tissues were immediately stored in liquid nitrogen prior to use or were used fresh. The assay of cyclooxygenase products was performed as a modification of the assay of El Attar et al., J. Periodon. Res., 21, 169-176 (1986). Pooled tissue was weighed and homogenized at 0°-4° C. with a polytron (Brinkman) homogenizer in a 0.2 M TRIS buffer, pH 8.0, at a final concentration of 20 mg/ml. After centrifugation for 10 minutes at 1200×g, the supernatant was divided into 3 ml aliquots for incubation in the presence or absence of a test compound. The test compounds were tested in triplicate over a log range of 10^-3 to 10^-9 M. The reaction was started by the addition of 0.2 uCi of ^14 C arachidonic acid and carried out for 2 hours at 37° C. The reaction was stopped by the addition of two volumes of ethanol and allowed to remain at room temperature for 30 minutes prior to centrifugation for 10 minutes in order to remove the precipitate. The prostaglandin was then extracted.
# Prostanoids were extracted as described by Powell, Methods in Eng., 86, 467 (1982) using a Sep-Pak-C18 cartridge from Walters Associates. The Sep-Pak was prepared by the sequential elusion of 20 milliliters of ethanol and 20 milliliters of water. The sample was then adjusted to 15% ethanol, pH 3.0, with acetic acid and applied to the column. The column was eluted with 20 ml of 15% ethanol, pH 3.0, 20 ml of petroleum ether and then the prostaglandin and Tx (thromboxane) was eluded with 10 ml of methyl formate. Thereafter, the methyl formate was evaporated to dryness with nitrogen and reconstituted in 32% […] (high-pressure liquid chromatography buffer).
# These are readily separated and quantified using a 4.6×100 mm RP-18 Spheri-5u column from Brownlee Labs. A Flow-One radioactivity monitor simultaneously measured radioactivity. The elution was monitored at 192 nanometers.
# The net incorporation of the ^14 C arachidonate was measured in the absence of the test substance in order to determine the maximal activity of the cyclooxygenase cascade. The percent inhibition for the inhibitors tested was then determined at several concentrations in order to calculate the IC50.
smiles,measurement,setting,value
CC(C)Cc1ccc(C(C)C(=O)O)cc1 (centres unmarked) [ibuprofen],Inhibition of periodontally supporting bone loss,[1],effective
same,IC50,[2]; calculated from percent inhibition at several concentrations,15 µM
same,% Control,"[2]; drug concentration 1 × 10^-4 M, 100 µM",27.5%
same,% Control,"[2]; drug concentration 1 × 10^-5 M, 10 µM",55.6%
same,% Control,"[2]; drug concentration 10^-6 M, 1 µM",92.6%

# From patent US5225441A, “Treatment of periodontal disease” (Block Drug Company, Inc., priority 1987, dated 1993)
